Assay results taken from patent publication US20180305334A1, “COMPOUNDS, COMPOSITIONS AND METHODS OF USE AGAINST STRESS GRANULES” (Aquinnah Pharmaceuticals, Inc., priority 2015, published 2018).

Tested on: TDP-43 aggregation in PC12 cells stably expressing TDP-43^Q331K::eGFP
Assay: In vitro efficacy assay, TDP-43 aggregation concentration-response
Assay type: cell-based
Settings: Rattus norvegicus, PC-12, inhibition of TDP-43 aggregation; PC12 TDP-43^Q331K::eGFP, 1 hour pre-treatment, 15 μM sodium arsenite for 23 hours; 10-point dose response
Experimental: Exemplary compounds of the invention were evaluated for efficacy in inhibiting TDP-43 inclusions using a concentration-response assay. Briefly, PC12 cells stably expressing a GFP-tagged mutant form of TDP-43 (TDP-43^Q331K::eGFP) were pre-treated for 1 hour with exemplary compounds and stressed with 15 μM sodium arsenite for 23 hours to induce TDP-43 aggregation. The inhibitory effect on TDP-43 aggregation was measured using fluorescence microscopy. The ratio of cells with TDP-43 aggregates was calculated based on the total number of cells with detectable GFP expression.

| SMILES | IC50 [µM] |
| --- | --- |
| CCN(CC1CCCN(CCc2ccccc2F)C1)C(=O)c1cc2ccccc2[nH]1 (stereo not drawn) [Compound 123] | 1.5 to 4 |
| CCN(CC1CCCN(CCc2ccccc2OC)C1)C(=O)c1cc2ccccc2[nH]1 (stereo not drawn) [Compound 124] | 4 to 7 |
| COc1cccc(CCN2CCCC(CNC(=O)c3cc4ccccc4[nH]3)C2)c1 (stereo not drawn) [Compound 125] | < 1.5 |
| CCN(CC1CCCN(CCc2ccc(F)cc2)C1)C(=O)c1cc2ccccc2[nH]1 (stereo not drawn) [Compound 126] | > 10 |
| CCN(CC1CCCN(Cc2ccccc2Cl)C1)C(=O)c1cc2ccccc2[nH]1 (stereo not drawn) [Compound 129] | > 10 |
| CCN(CC1CCCN(Cc2ccccc2C#N)C1)C(=O)c1cc2ccccc2[nH]1 (stereo not drawn) [Compound 130] | 1.5 to 4 |
| CCN(CC1CCCN(Cc2cccc(C#N)c2)C1)C(=O)c1cc2ccccc2[nH]1 (stereo not drawn) [Compound 133] | 1.5 to 4 |
| CCN(CC1CCCN(CCc2ccccc2Cl)C1)C(=O)c1cc2ccccc2[nH]1 (stereo not drawn) [Compound 139] | 1.5 to 4 |
| CCN(CC1CCCN(CCc2cccc(F)c2)C1)C(=O)c1cc2ccccc2[nH]1 (stereo not drawn) [Compound 140] | < 1.5 |
| CCN(CC1CCCN(CCc2cccc(Cl)c2)C1)C(=O)c1cc2ccccc2[nH]1 (stereo not drawn) [Compound 141] | < 1.5 |
| CCN(CC1CCCN(CCc2ccc(C#N)cc2)C1)C(=O)c1cc2ccccc2[nH]1 (stereo not drawn) [Compound 142] | > 10 |
| COc1cccc(CCN2CCCC(CN(C(=O)c3cc4ccccc4[nH]3)C(C)C)C2)c1 (stereo not drawn) [Compound 143] | < 1.5 |
| COc1cccc(CCN2CCCC(CN(C(=O)c3cc4ccccc4[nH]3)c3ccccc3)C2)c1 (stereo not drawn) [Compound 144] | < 1.5 |
| CCN(CC1CCCN(CCc2ccc3c(c2)OCC3)C1)C(=O)c1cc2ccccc2[nH]1 (stereo not drawn) [Compound 145] | 1.5 to 4 |
| CCN(CC1CCCN(CCc2ccc3c(c2)OCO3)C1)C(=O)c1cc2ccccc2[nH]1 (stereo not drawn) [Compound 146] | 1.5 to 4 |
| CCN(CC1CCCN(CCc2ccccc2C#N)C1)C(=O)c1cc2ccccc2[nH]1 (stereo not drawn) [Compound 147] | > 10 |
| CCN(CC1CCCN(Cc2cccc(OC(F)(F)F)c2)C1)C(=O)c1cc2cc(OC(F)(F)F)ccc2[nH]1 (stereo not drawn) [Compound 175] | > 10 |

| SMILES | IC50 [µM] |
| --- | --- |
| CCN(CC1CCCN(Cc2cccc(OC(F)F)c2)C1)C(=O)c1cc2cc(OC(F)F)ccc2[nH]1 (stereo not drawn) [Compound 177] | < 1.5 |
| CCN(CC1CCCN(CCc2cccc(OC(F)(F)F)c2)C1)C(=O)c1cc2cc(OC(F)(F)F)ccc2[nH]1 (stereo not drawn) [Compound 179] | 4 to 7 |
| CCN(CC1CCCN(CCc2cccc(OC(F)F)c2)C1)C(=O)c1cc2cc(OC(F)F)ccc2[nH]1 (stereo not drawn) [Compound 180] | > 10 |
| CCN(CC1CCCN(CCc2cc3ccccc3o2)C1)C(=O)c1cc2ccccc2[nH]1 (stereo not drawn) [Compound 181] | 7 to 9.9 |
| CCN(CC1CCCN(S(=O)(=O)c2ccc(OC)cc2)C1)C(=O)c1cc2ccccc2[nH]1 (stereo not drawn) [Compound 200] | 1.5 to 4 |
| CCN(CC1CCCN(C(=O)Cc2ccc(OC)cc2)C1)C(=O)c1cc2ccccc2[nH]1 (stereo not drawn) [Compound 201] | < 1.5 |
| CCN(CC1CCCN(Cc2cc3ccccc3o2)C1)C(=O)c1cc2c(F)cc(F)cc2[nH]1 (stereo not drawn) [Compound 205] | 1.5 to 4 |
| CCN(CC1CCCN(Cc2cc3ccccc3o2)C1)C(=O)c1cc2ccccc2[nH]1 (stereo not drawn) [Compound 206] | < 1.5 |
| CCN(CC1CCCN(C2CCc3ccccc32)C1)C(=O)c1cc2ccccc2[nH]1 (stereo not drawn) [Compound 207] | < 1.5 |
| CCN(CC1CCCN(C2CCc3ccccc3C2)C1)C(=O)c1cc2ccccc2[nH]1 (stereo not drawn) [Compound 208] | 4 to 7 |
| CCN(CC1CCCN(C2Cc3ccccc3C2)C1)C(=O)c1cc2ccccc2[nH]1 (stereo not drawn) [Compound 209] | 4 to 7 |
| CCN(CC1CCCN(C2CCc3ccc(OC)cc3C2)C1)C(=O)c1cc2ccccc2[nH]1 (stereo not drawn) [Compound 210] | > 10 |
| CCN(CC1CCN(C2CCc3ccccc3C2)CC1)C(=O)c1cc2ccccc2[nH]1 (stereo not drawn) [Compound 211] | 1.5 to 4 |
| CCN(CC1CCCN(CCc2ccccc2)C1)C(=O)c1cc2ccccc2[nH]1 (stereo not drawn) [Compound 216] | 1.5 to 4 |
| COc1cccc(CCN2CCCC(CN(C)C(=O)c3cc4ccccc4[nH]3)C2)c1 (stereo not drawn) [Compound 217] | < 1.5 |
| COc1cccc(CCN2CCCC(CN(Cc3ccccc3)C(=O)c3cc4ccccc4[nH]3)C2)c1 (stereo not drawn) [Compound 218] | > 10 |
| COc1cccc(CCN2CCCC(CN(C(=O)c3cc4ccccc4[nH]3)C3CCCCC3)C2)c1 (stereo not drawn) [Compound 219] | < 1.5 |

More lines, now with the values ahead:

| IC50 [µM] | SMILES |
| --- | --- |
| < 1.5 | CCN(CC1CCCN(CCc2ccc(OC)cc2)C1)C(=O)c1cc2ccccc2[nH]1 (stereo not drawn) [Compound 127] |
| < 1.5 | CCN(CC1CCCN(CCc2ccc(Cl)cc2)C1)C(=O)c1cc2ccccc2[nH]1 (stereo not drawn) [Compound 128] |
| > 10 | CCN(CC1CCCN(Cc2cccc(F)c2)C1)C(=O)c1cc2ccccc2[nH]1 (stereo not drawn) [Compound 131] |
| 1.5 to 4 | CCN(CC1CCCN(Cc2ccccc2)C1)C(=O)c1cc2ccccc2[nH]1 (stereo not drawn) [Compound 132] |
| 1.5 to 4 | CCN(CC1CCCN(Cc2cccc(Cl)c2)C1)C(=O)c1cc2ccccc2[nH]1 (stereo not drawn) [Compound 134] |
| < 1.5 | CCN(CC1CCCN(Cc2ccc(F)cc2)C1)C(=O)c1cc2ccccc2[nH]1 (stereo not drawn) [Compound 135] |
| 1.5 to 4 | CCN(CC1CCCN(Cc2ccc(OC)cc2)C1)C(=O)c1cc2ccccc2[nH]1 (stereo not drawn) [Compound 137] |
| < 1.5 | CCN(CC1CCCN(Cc2ccc(Cl)cc2)C1)C(=O)c1cc2ccccc2[nH]1 (stereo not drawn) [Compound 138] |
| < 1.5 | CCN(CC1CCCN(Cc2ccc(Cl)cc2)C1)C(=O)c1cc2cc(OC)ccc2[nH]1 (stereo not drawn) [Compound 148] |
| < 1.5 | CCN(CC1CCCN(Cc2ccc(OC)cc2)C1)C(=O)c1cc2cc(OC)ccc2[nH]1 (stereo not drawn) [Compound 149] |
| < 1.5 | CCN(CC1CCCN(Cc2ccc(Cl)cc2)C1)C(=O)c1cc2cc(F)ccc2[nH]1 (stereo not drawn) [Compound 150] |
| < 1.5 | CCN(CC1CCCN(Cc2ccc(OC)cc2)C1)C(=O)c1cc2cc(F)ccc2[nH]1 (stereo not drawn) [Compound 151] |
| > 10 | CCN(CC1CCCN(Cc2ccc(Cl)cc2)C1)C(=O)c1cc2cc(OC)c(OC)cc2[nH]1 (stereo not drawn) [Compound 152] |
| 1.5 to 4 | CCN(CC1CCCN(Cc2ccc(Cl)cc2)C1)C(=O)c1cc2c(Cl)cc(Cl)cc2[nH]1 (stereo not drawn) [Compound 153] |
| 1.5 to 4 | CCN(CC1CCCN(Cc2ccc(OC)cc2)C1)C(=O)c1cc2c(Cl)cc(Cl)cc2[nH]1 (stereo not drawn) [Compound 154] |
| 1.5 to 4 | CCN(CC1CCCN(Cc2ccc(Cl)cc2)C1)C(=O)c1cc2ccc(C)cc2[nH]1 (stereo not drawn) [Compound 155] |
| 1.5 to 4 | CCN(CC1CCCN(Cc2ccc(OC)cc2)C1)C(=O)c1cc2ccc(C)cc2[nH]1 (stereo not drawn) [Compound 156] |
| > 10 | CCN(CC1CCCN(Cc2ccc(Cl)cc2)C1)C(=O)c1cc2cccc(F)c2[nH]1 (stereo not drawn) [Compound 157] |
| 4 to 7 | CCN(CC1CCCN(Cc2ccc(OC)cc2)C1)C(=O)c1cc2cccc(F)c2[nH]1 (stereo not drawn) [Compound 158] |
| 1.5 to 4 | CCN(CC1CCCN(Cc2ccc(Cl)cc2)C1)C(=O)c1cc2ccc(OC)cc2[nH]1 (stereo not drawn) [Compound 159] |

| IC50 [µM] | SMILES |
| --- | --- |
| < 1.5 | CCN(CC1CCCN(Cc2ccc(Cl)cc2)C1)C(=O)c1cc2cc(Cl)ccc2[nH]1 (stereo not drawn) [Compound 160] |
| < 1.5 | CCN(CC1CCCN(Cc2ccc(OC)cc2)C1)C(=O)c1cc2cc(Cl)ccc2[nH]1 (stereo not drawn) [Compound 161] |
| 1.5 to 4 | CCN(CC1CCCN(Cc2ccc(OC)cc2)C1)C(=O)c1cc2ccc(OC)cc2[nH]1 (stereo not drawn) [Compound 162] |
| < 1.5 | CCN(CC1CCCN(Cc2ccc(Cl)cc2)C1)C(=O)c1cc2c(OC)cccc2[nH]1 (stereo not drawn) [Compound 163] |
| 1.5 to 4 | CCN(CC1CCCN(Cc2ccc(Cl)cc2)C1)C(=O)c1cc2ccc(Cl)cc2[nH]1 (stereo not drawn) [Compound 164] |
| 1.5 to 4 | CCN(CC1CCCN(Cc2ccc(Cl)cc2)C1)C(=O)c1cc2c(F)cccc2[nH]1 (stereo not drawn) [Compound 165] |
| > 10 | CCN(CC1CCCN(Cc2ccc(OC)cc2)C1)C(=O)c1cc2c(F)cccc2[nH]1 (stereo not drawn) [Compound 166] |
| < 1.5 | CCN(CC1CCCN(Cc2ccc(OC)cc2)C1)C(=O)c1cc2ccc(Cl)cc2[nH]1 (stereo not drawn) [Compound 168] |
| < 1.5 | CCN(CC1CCCN(Cc2ccc(Cl)cc2)C1)C(=O)c1cc2c(F)cc(F)cc2[nH]1 (stereo not drawn) [Compound 169] |
| < 1.5 | CCN(CC1CCCN(Cc2ccc(OC)cc2)C1)C(=O)c1cc2c(F)cc(F)cc2[nH]1 (stereo not drawn) [Compound 170] |
| < 1.5 | CCN(CC1CCCN(Cc2ccc(OC)cc2)C1)C(=O)c1cc2cc(F)c(F)cc2[nH]1 (stereo not drawn) [Compound 171] |
| 1.5 to 4 | CCN(CC1CCCN(Cc2ccc(Cl)cc2)C1)C(=O)c1cc2cc(F)c(F)cc2[nH]1 (stereo not drawn) [Compound 172] |
| 1.5 to 4 | CCN(CC1CCCN(Cc2ccc(Cl)cc2)C1)C(=O)c1cc2cc(OCc3ccccc3)ccc2[nH]1 (stereo not drawn) [Compound 173] |
| 1.5 to 4 | CCN(CC1CCCN(Cc2ccc(OC)cc2)C1)C(=O)c1cc2cc(OCc3ccccc3)ccc2[nH]1 (stereo not drawn) [Compound 174] |
| > 10 | CCN(CC1CCCN(Cc2ccc(OC(F)(F)F)cc2)C1)C(=O)c1cc2cc(OC(F)(F)F)ccc2[nH]1 (stereo not drawn) [Compound 176] |
| < 1.5 | CCN(CC1CCCN(Cc2ccc(OC(F)F)cc2)C1)C(=O)c1cc2cc(OC(F)F)ccc2[nH]1 (stereo not drawn) [Compound 178] |
| 1.5 to 4 | CCN(CC1CCCN(Cc2cc3ccccc3o2)C1)C(=O)c1cc2cc(OC)ccc2[nH]1 (stereo not drawn) [Compound 203] |
| < 1.5 | CCN(CC1CCCN(Cc2cc3ccccc3o2)C1)C(=O)c1cc2c(OC)cccc2[nH]1 (stereo not drawn) [Compound 204] |
| > 10 | CCN(CC1CCCN(Cc2ccc(C(=O)OC)cc2)C1)C(=O)c1cc2ccccc2[nH]1 (stereo not drawn) [Compound 212] |
| > 10 | CCN(CC1CCCN(Cc2ccc(C(=O)O)cc2)C1)C(=O)c1cc2ccccc2[nH]1 (stereo not drawn) [Compound 213] |

Same assay, conditions: inhibition of TDP-43 aggregation; PC12 TDP-43^Q331K::eGFP, 1 hour pre-treatment, 15 μM sodium arsenite for 23 hours; 10-point dose response

| IC50 [µM] | SMILES |
| --- | --- |
| < 1.5 | CCN(CC1CCCN(Cc2ccc(Cl)cc2)C1)C(=O)c1cc2ccc(Cl)cc2[nH]1 (stereo not drawn) [Compound 167] |
